Test system: MALME-3M multicell spheroids, viability
Assay: Anticancer human tumor MALME-3M cell line growth inhibition [TAK];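 note: spheroids exposed to drugs for seven days before readout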;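 for viability, T/C: 100% = DMSO vehicle control viability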
Conditions: for IC50: curve of first compound; for viability, T/C: stronger effect = lower value
From the text: Combinatorial screen of targeted agents with TAK-243 and ipatasertib in multi-cell type tumor spheroids
A high-throughput screen of multi-cell type tumor spheroids was designed to identify active combinations of targeted small molecules and TAK-243 or ipatasertib. Complex spheroids include a stromal component modeled by human endothelial cells (HUVEC) and fibroblasts modeled by human mesenchymal stem cells (MSCs). The concentration ranges selected for each drug and investigational agent were based upon clinically achievable concentrations if the clinical Cmax of the agent was known.
Compounds. The drugs and investigational agents: TAK-243 (785004), ipatasertib (767898), everolimus (733504), selumetinib (741078), bortezomib (756655), trametinib (758246), ixazomib (758254), vemurafenib (761431), dabrafenib (764134), sapanisertib (764658), alpelisib (765974), and copanlisib (816437), were obtained from the National Cancer Institute (NCI) Developmental Therapeutics Program Chemical Repository. The FDA-approved anticancer drug set is available from the NCI Developmental Therapeutics Program. […] The stock solutions were prepared in dimethyl sulfoxide (DMSO, Sigma-Aldrich, St. Louis, MO, cat. D2650) at 800-fold the tested concentration and stored at -70 degrees C prior to their use. All drugs and investigational agents were tested over a range starting from a high concentration at or near the clinical Cmax and decreasing in half-log increments. If the clinical Cmax for an agent had not been determined, the highest concentration tested was 10 microM.
NCI60 Cell Culture. NCI60 cell lines were obtained from the NCI Developmental Therapeutics Program Tumor Repository. For each lot of cells, the Repository performed Applied Biosystems AmpFLSTR Identifiler testing with PCR amplification to confirm consistency with the published Identifier STR profile for each cell line. Cells were kept in continuous culture for no more than 20 passages. The optimal seeding densities for each of the cell lines at each time point assessed were determined prior to performing the concentration response studies. Briefly, the NCI60 human tumor lines were grown as monolayers in RPMI 1640 medium supplemented with 10% FBS and 2 mmol/L L-glutamine.
An additional 2 lines were from the NCI60 cell line panel including melanomas, MALME-3M and SK-MEL-2. Pooled donor human umbilical vein endothelial cells (HUVEC, Lonza, cat. CC-2519) and human mesenchymal stem cells (hMSC, Lonza, cat. PT-2501) were purchased from Lonza (Walkersville, MD).
PDMR cell lines were grown in complete medium (DC medium): Dulbecco's modified Eagle's medium (DMEM)/F12 supplemented with 5% fetal bovine serum (FBS), 2 mM L-glutamine, 100 U/mL penicillin and 100 µg/ml streptomycin, 0.4 µg/ml hydrocortisone, 10 ng/ml epidermal growth factor (EGF) recombinant human protein, 24 µg/mL adenine, and 0.1 mg/mL primocin. During culture from frozen stock vials, PDMR cells were cultured in the same medium containing 10 µM Y-27632 (see Table 3). The PDCs were cultured in complete DMEM/F12 media without 10 microM Y-27632 dihydrochloride for at least two passages prior to the screen. The pooled donor HUVEC and hMSC were cultured in endothelial cell growth medium 2 (PromoCell, Heidelberg, Germany, cat. C-22011) and mesenchymal stem cell growth medium 2 (PromoCell, cat. C-28009), respectively. For all experiments, HUVEC and hMSC were used at passages </=5.
For the pre-screen, cell seeding densities were determined from a titration spanning the range from 5,000 to 313 cells per well. The mct-spheroids including 60% malignant cells, 25% HUVEC and 15% MSC dispensed as a mixture into U-bottom Ultra-Low Attachment 384-well plates (Corning, NY)
High-throughput Drug Combination Screening.
Prior to their inoculation into 384-well plates, malignant cells, HUVEC, and hMSC were removed from T flasks using TrypLE express (Thermo Fisher Scientific, cat. 12605036) and harvested by centrifugation for 5 min at 233 x g. […]

In the case of `CC(C)n1nc(-c2ccc3oc(N)nc3c2)c2c(N)ncnc21` + CC(C)NCC(C(=O)N1CCN(c2ncnc3c2C(C)CC3O)CC1)c1ccc(Cl)cc1, the IC50 (second compound 0.3 µM) is reported as 12.1 nM, the IC50 (second compound 0.949 µM) is reported as 7.82 nM and the IC50 (second compound 3 µM) is reported as 5.3 nM. For the same compound, the IC50 (second compound 9.49 µM) was 1.81 nM, the IC50 (second compound 30 µM) was < 0.316 nM and the viability, T/C (second compound 0.3 µM, first compound 0.000316 µM) was 87.8%. It also gave a viability, T/C (second compound 0.3 µM, first compound 0.001 µM) of 76.1%, a viability, T/C (second compound 0.3 µM, first compound 0.00316 µM) of 69.3% and a viability, T/C (second compound 0.3 µM, first compound 0.01 µM) of 55.7%. The viability, T/C (second compound 0.3 µM, first compound 0.0316 µM) was 31.3%, the viability, T/C (second compound 0.3 µM, first compound 0.1 µM) was 11.2% and the viability, T/C (second compound 0.949 µM, first compound 0.000316 µM) was 81.6%. It also gave a viability, T/C (second compound 0.949 µM, first compound 0.001 µM) of 74.7%, a viability, T/C (second compound 0.949 µM, first compound 0.00316 µM) of 65.6% and a viability, T/C (second compound 0.949 µM, first compound 0.01 µM) of 46.6%. It also gave a viability, T/C (second compound 0.949 µM, first compound 0.0316 µM) of 23.1%, a viability, T/C (second compound 0.949 µM, first compound 0.1 µM) of 10% and a viability, T/C (second compound 3 µM, first compound 0.000316 µM) of 67.6%. The viability, T/C (second compound 3 µM, first compound 0.001 µM) was 61.1%, the viability, T/C (second compound 3 µM, first compound 0.00316 µM) was 52.4% and the viability, T/C (second compound 3 µM, first compound 0.01 µM) was 45.8%. It also gave a viability, T/C (second compound 3 µM, first compound 0.0316 µM) of 14.5%, a viability, T/C (second compound 3 µM, first compound 0.1 µM) of 6.89% and a viability, T/C (second compound 9.49 µM, first compound 0.000316 µM) of 62%. The viability, T/C (second compound 9.49 µM, first compound 0.001 µM) was 56.7%, the viability, T/C (second compound 9.49 µM, first compound 0.00316 µM) was 43.7% and the viability, T/C (second compound 9.49 µM, first compound 0.01 µM) was 22.5%. It also gave a viability, T/C (second compound 9.49 µM, first compound 0.0316 µM) of 9.06%, a viability, T/C (second compound 9.49 µM, first compound 0.1 µM) of 4.23% and a viability, T/C (second compound 30 µM, first compound 0.000316 µM) of 36.5%. For the same compound, the viability, T/C (second compound 30 µM, first compound 0.001 µM) was 37.5%, the viability, T/C (second compound 30 µM, first compound 0.00316 µM) was 28.6% and the viability, T/C (second compound 30 µM, first compound 0.01 µM) was 17.2%. It also gave a viability, T/C (second compound 30 µM, first compound 0.0316 µM) of 8.52% and a viability, T/C (second compound 30 µM, first compound 0.1 µM) of 4.01%.

Reference: PubChem BioAssay AID2060345 (Molecular Pharmacology Branch, DTP, NCI, 2025)
